Data: US20090155179A1, “KINETIC BIOMARKER FOR QUANTIFICATION OF LYMPHOPROLIFERATION, CLONAL EXPANSION, RECRUITMENT AND TRAFFICKING IN LYMPHOID TISSUES AND OF THE IN VIVO ACTIONS OF ANTIGENS AND MODULATING THEREON” (KINEMED, INC., priority 2005, published 2009)
Entries after “also recorded” stand apart in the source; their conditions may differ.

Columns and labels:
[1] = tolerability of maintained 2H2O body water enrichment; format: in vivo; conditions: 1-10% of total body water labeled, weeks or months, humans (>100 people) and experimental animals
Description: Relatively high body water enrichments of ^2H2O (e.g., 1-10% of the total body water is labeled) may be achieved relatively inexpensively using the techniques of the invention. […] This finding in a large number of human subjects (>100 people) is contrary to previous concerns about vestibular toxicities at high doses of ^2H2O. One of the Applicants has discovered that as long as rapid changes in body water enrichment are prevented (e.g., by initial administration in small, divided doses), high body water enrichments of ^2H2O can be maintained with no toxicities. For example, the low expense of commercially available ^2H2O allows long-term maintenance of enrichments in the 1-5% range at relatively low expense.

[2] = test system: PLN cells (draining popliteal lymph node lymphocytes); assay: kinetic PLNA (popliteal lymph node assay) with continuous 2H2O labeling after footpad immunization; format: in vivo, Balb/c mice; conditions: for PLN cellularity under drug treatment: 5 μg KLH or PBS, Rap 2 mg/kg/d p.o.
Method: PLNA and heavy water labeling. The kinetic PLNA was performed as follows, except as noted in the Figure legends. In all experiments, groups of n=4 or 5 Balb/c mice were immunized subcutaneously on day 0 in the left hind footpad (toe to heel direction) with 20 μl PBS or drug vehicle (negative control group), or with 20 μl PBS containing 5-25 μg KLH (positive control group). Heavy water labeling was initiated on day 0 by intraperitoneal administration of 99.9% ^2H2O containing 0.9% w/v NaCl at 35 ml/kg body weight, and animals were maintained on 8% ^2H2O in drinking water for the remainder of the study. At day 7 post immunization, animals were bled into heparinized tubes by cardiac puncture under isoflurane anesthesia and sacrificed by cervical dislocation. The blood was centrifuged at 1500×g for 10 minutes, and heparinized plasma was stored at −20° C. for determination of body water ^2H enrichment; a second aliquot was frozen for serologic studies. Bone marrow was harvested from the right hindlimb femur by flushing the bone with 1 ml PBS using a 25 ga cannula and centrifuging the tissue and cell suspension at 450×g for 5 min.
Analysis of PLN cells. Draining PLN were dissected from the left hind limb, mechanically dispersed, using tweezers, into ice-cold RPMI 1640 containing 10% fetal bovine serum and antibiotics. The cell suspensions were thoroughly mixed and strained through a 35 μm cell strainer fitted to a 12×75 mm polystyrene tube (BD Biosciences, San Jose, Calif.) and centrifuged at 450×g at 4° C. for 5 min. Cells were suspended in 100 μl staining buffer (PBS containing 0.5% w/v bovine serum albumin, 2 mM EDTA, and 0.05% sodium azide), blocked by addition of 20 μl mg/ml murine IgG (Sigma) and 2 μl anti-CD16/CD32 mAb (Miltenyi Biotec, City/State) at 4° C. for 15 min., and stained with anti-CD3-FITC and anti-B220-PE/Cy5 (eBioscience, 1 μl each) for 15 min. The samples were diluted to 900 μl with staining buffer, mixed thoroughly with 100 μl Flow-Count fluorospheres, and analyzed on an Epics XL flow cytometer (Beckman Coulter, City/State) for determination of absolute lymph node cell counts and percentages and absolute counts of T cells, B cells, and non-T/B cells. Absolute cell counts per lymph node were determined as:
Analysis of ^2H incorporation into purine dR. DNA was extracted from samples of bone marrow, total PLN cells, or sorted T and B cells using DNEasy kits (Qiagen, Valencia, Calif.) according to the manufacturer's instructions. Aliquots (0.5 μg) were hydrolyzed to […] by overnight incubation at 37° C. with 0.5 units nuclease SI (Sigma) and 0.25 units potato acid phosphatase (Calbiochem) in 75 mM sodium acetate buffer, pH 4.8, containing 0.15 mM ZnSO4. […] The hydroxyl groups were acetylated using acetic anhydride and N-methylimidazole, and the resultant pentafluorobenzyl […] derivative was extracted into dichloromethane, dried under vacuum, and redissolved in 100 μl ethyl acetate. The derivative was analyzed by gas chromatography/mass spectrometry (GC/MS) as described supra, with selected ion monitoring at m/z 435 (for the parent mass isotopomer, M0) and 436 (M1). After integration of the M0 and M1 peak area using ChemStation software, the excess mole fraction of the M1 mass isotopomer (EM1) was calculated as: […]
Calculations and statistics. Fractional turnover of PLN cell populations (f, the fraction of total, T, or B cells that have divided during the labeling period, representing clonal expansion, FIG. 1) was calculated as:
f=EM1observed/EM1maximal,
where EM1maximal was represented, in most experiments, by bone marrow DNA from the same animal, or assumed to equal 0.14. Alternatively, for mice labeled for less than four days, EM1maximal was represented by 0.9× the EMI value predicted from the animal's body water ^2H enrichment (the factor of 0.9 represents dilution by salvage).

[3] = test system: xenografted human tumor cells; assay: f of xenografted human tumor cells in mice; format: in vivo; conditions: 10 mg/kg/d, i.p.; previously seen
PLN cells = assay: kinetic PLNA with 2H2O labeling after KLH immunization in C57BI/6 mice; format: in vivo, C57BI/6 (B6) mice; conditions: B6 mice
[4] = day 7, Dex 0.3 mg/kg/d p.o., Tax 10 mg/kg/d i.p., OHU 500 mg/kg/d i.p.

For `[2H]O[2H]` [^2H2O], the “toxicity of maintained body water enrichment” value [1] was “without any evidence of toxicity”.
For `NC(=O)NO` [hydroxyurea], the “PLN cellularity under drug treatment” value [2, 4] was “modest and variable effects”, the “f of total PLN cells after KLH stimulation” value ([2]; 5 μg KLH, daily drug to day 7: Rap 2 mg/kg/d p.o., OHU 500 mg/kg/d i.p.) was “strongly inhibited” and the “f of total PLN cells at baseline” value ([2]; sham-immunized (PBS), daily drug to day 7: Rap 2 mg/kg/d p.o., OHU 500 mg/kg/d i.p.) was “strongly inhibited”.
With `O=[N+]([O-])c1ccc(Cl)c([N+](=O)[O-])c1` [DNCB, 2,4-dinitrochlorobenzene] the “dose above which f reached a plateau” value ([2]; Balb/c, DNCB in PBS:DMSO, day 7) was “above 100 μg”.
For `CC(=O)O[C@H]1C(=O)[C@@]2(C)[C@H]([C@H](OC(=O)c3ccccc3)[C@]3(O)C[C@H](OC(=O)[C@H](O)[C@@H](NC(=O)c4ccccc4)c4ccccc4)C(C)=C1C3(C)C)[C@]1(OC(C)=O)CO[C@@H]1C[C@@H]2O` [paclitaxel], the “PLN cellularity under drug treatment” value [2, 4] was “reduced”, the “f (clonal expansion) of PLN cells under drug treatment” value ([2]; stimulation not specified, Tax 10 mg/kg/d i.p., Dex 0.3 mg/kg/d p.o., day 7) was “did not affect f” and the “f of xenografted human tumor cells in mice” value [3] was “strong inhibition”.
In the case of keyhole limpet hemocyanin [KLH], the “proliferation response to low doses of KLH” value ([2]; Balb/c, 0.2-2 μg KLH) was “increase in f without a change in PLN cellularity”, the “proliferation response to higher doses of KLH” value ([2]; Balb/c, 5-25 μg KLH or with incomplete Freund's adjuvant) was “f reached a plateau” and the “increase of PLN cellularity” value ([2]; Balb/c, KLH doses that increased cellularity) was 2- to 3 fold. For the same compound, the “antigen dose at which cellularity was maximal” value ([2]; Balb/c, KLH in PBS, day 7) was “around 25 μg”, the “antigen dose at which f was maximally increased” value ([2]; Balb/c, KLH, as little as) was 600 ng and the “CD4+ T cell f” value ([2]; Balb/c, KLH-immunized, day 7, other attempts, vs. 7.5%±1.3% without KLH, p=0.017) was 11.3%±2.1. For the same compound, the “proliferating cells as share of cells in the PLN” value ([2]; Balb/c, any KLH dose, day 7) was ≤ 20%, the “f in total PLN cells after immunization” value ([2]; Balb/c, footpad immunization, day 7) was “elevated to a dose-independent plateau; also recorded: significant; also recorded: increased f” and the “f in PLN B cells after immunization” value ([2]; Balb/c, sorted B cells, day 7) was “pronounced increase; also recorded: Significant KLH effect; also recorded: significantly increased”. For the same compound, the “f in CD4+ T cells after immunization” value ([2]; Balb/c, sorted CD4+ T cells, day 7) was “smaller increase”, the “f in CD8+ T cells after immunization” value ([2]; Balb/c, sorted CD8+ T cells, day 7) was “not in CD8^+ T cells” and the “f in total T cells after immunization” value ([2]; Balb/c, sorted T cells, day 7) was “smaller increase; also recorded: Significant KLH effect”. For the same compound, the “f in sorted B cells and total T cells” value (PLN cells; 200 μg KLH, day 7) was “Neither B cells nor T cells showed a substantial increase”, the “f in PLN cells after KLH immunization, day 7” value (PLN cells; 2-200 μg KLH, day 7) was “no significant increase; also recorded: lower” and the “cellularity in PLN” value (PLN cells; 7 days after KLH immunization) was “dose-dependent”. For the same compound, the “f in PLN cells, time course” value (PLN cells; KLH, day 4) was “transient increase”.
